Results on 29 compounds are retold here after patent US9187465B2, “Oxazole tyrosine kinase inhibitors” (Sareum Limited, priority 2007, dated 2015).

For one assay, the target named is T1, human FLT4 (Homo sapiens, UniProt P35916).
T1 construct: a construct expressing the human FLT4 (789-1207) with an amino terminal GST tag; host or cells: Sf9 insect cells (baculovirus)
Kind of assay: FLT4 kinase assay (DELFIA enzyme inhibition). The assay is classed as biochemical. As for the experimental part:
A GST-kinase fusion protein of 70 KDa was produced using sf9 baculovirus expression system, with a construct expressing the human FLT4 (789-1207) with an amino terminal GST tag. The protein was purified by affinity chromatography using glutathione-agarose followed by separation on a gel filtration column.
FLT4 enzyme activity is determined using a Dissociation Enhanced Lanthanide Fluorescent Immunoassay (DELFIA) with a peptide substrate derived from the MET (Tyr 1253) peptide […] with a core sequence […].
The amount of phosphorylated peptide produced is detected by means of a phospho-Tyrosine specific Europium-labelled antibody using Time-Resolved Fluorescence at Excitation 360-35 nm and Emission 620-35 nm.
Assay reactions are set up in a 25 uL final volume on a 96 well plate. […] The reaction is allowed to proceed for 30 minutes at room temperature before stopping with 100 uL Stop solution comprising of 100 mM EDTA, 1×BSA blocker in TBS (Perbio) and 0.05% Surfact-Amps20 (Perbio).
The stopped reaction is transferred to a black 96-well Neutravidin-coated plate (Perbio) and incubated for 30 minutes to capture the biotinylated peptide substrate. After washing wells 3 times with 200 uL TBS/T buffer, Anti-Phospho-Tyr-100 antibody labelled with Eu—N1 (Perkin Elmer AD0159) is added to all wells for 60 minutes at room temperature. After a repeat washing step, DELFIA Enhancement solution (Perkin Elmer) is added to all wells for 5 minutes and the fluorescence measured on a plate reader Analyst HT (Molecular Devices).
The % inhibition of the activity is calculated and plotted in order to determine the concentration of test compound required to inhibit 50% of the enzyme activity (IC50).

A further assay addresses T2, human Aurora A (Homo sapiens, UniProt O14965).
T2 construct: Histidine tag (N); host or cells: Sf9 insect cells (baculovirus)
T2 sequence (O14965 1-403): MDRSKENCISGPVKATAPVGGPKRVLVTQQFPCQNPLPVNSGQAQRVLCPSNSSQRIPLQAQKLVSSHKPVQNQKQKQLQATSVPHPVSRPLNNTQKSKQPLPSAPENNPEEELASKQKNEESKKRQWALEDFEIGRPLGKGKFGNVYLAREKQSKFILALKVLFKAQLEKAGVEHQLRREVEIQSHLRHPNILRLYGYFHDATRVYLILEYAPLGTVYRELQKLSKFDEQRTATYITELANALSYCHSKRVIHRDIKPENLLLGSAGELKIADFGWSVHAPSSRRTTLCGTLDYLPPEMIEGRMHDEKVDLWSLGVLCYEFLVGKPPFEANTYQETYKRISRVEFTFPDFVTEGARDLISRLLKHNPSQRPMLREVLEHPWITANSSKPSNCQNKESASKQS
In words: Aurora A kinase assay (DELFIA enzyme inhibition). The format is biochemical. As for the experimental part: The protein was purified by one-step affinity chromatography using nickel-agarose […]
Assay reactions are set up in a 25 uL final volume on a 96 well plate. […] The reaction is allowed to proceed for 30 minutes at room temperature before stopping with 100 μL Stop solution comprising of 100 mM EDTA, 1×BSA blocker in TBS (Perbio) and 0.05% Surfact-Amps20 (Perbio).
The stopped reaction is transferred to a black 96-well Neutravidin-coated plate (Perbio) and incubated for 30 minutes to capture the biotinylated peptide substrate. […] After repeating the washing step, the plate is further incubated for one hour with Europium-labelled anti-rabbit antibody (Perkin Elmer AD0105). The wash step is repeated for a final time before DELFIA Enhancement solution (Perkin Elmer) is added to all wells for 5 minutes and the fluorescence measured on a plate reader Analyst HT (Molecular Devices).

What is called IC50 is the concentration that gives 50% inhibition.

The structures appear in SMILES notation. Read-outs that look alike come from different tables or passages of the source.

T1 sequence (P35916 789-1207): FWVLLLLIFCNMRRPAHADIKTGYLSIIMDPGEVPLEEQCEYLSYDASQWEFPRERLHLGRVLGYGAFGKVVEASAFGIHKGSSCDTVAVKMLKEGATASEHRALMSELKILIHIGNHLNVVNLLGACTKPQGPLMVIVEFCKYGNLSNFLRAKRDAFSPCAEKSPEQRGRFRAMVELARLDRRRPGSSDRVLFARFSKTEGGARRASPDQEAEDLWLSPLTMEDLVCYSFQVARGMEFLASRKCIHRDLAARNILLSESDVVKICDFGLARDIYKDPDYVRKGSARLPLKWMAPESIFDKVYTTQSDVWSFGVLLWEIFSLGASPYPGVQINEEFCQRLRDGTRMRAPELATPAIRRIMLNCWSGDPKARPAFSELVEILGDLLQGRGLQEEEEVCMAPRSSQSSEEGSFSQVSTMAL

For the compound `NC(=O)c1nc(-c2c(F)cccc2F)oc1-c1ccc(NCCN2CCOCC2)cc1` [Example F-34, 2-(2,6-difluorophenyl)-5-(4-(2-morpholinoethylamino)phenyl)oxazole-4-carboxamide], the IC50 on human FLT4 (read-out: FLT4 IC50) and on human Aurora A (read-out: Aurora A IC50) was < 10 µM each time.

As for `CCCN(CCO)CCOc1ccc(-c2oc(-c3c(F)cccc3F)nc2C(N)=O)cc1` [Example S-16, 2-(2,6-difluorophenyl)-5-(4-(2-((2-hydroxyethyl)(propyl)amino)ethoxy)phenyl)oxazole-4-carboxamide], the 50% inhibitory concentration (IC50) on human FLT4 (read-out: FLT4 IC50) and at human Aurora A (read-out: Aurora A IC50) was < 10 µM in each case.

Consider `COc1ccc(-c2oc(-c3ccccc3C(N)=O)nc2C(N)=O)cc1` [Example M-6, 2-(2-carbamoylphenyl)-5-(4-methoxyphenyl)oxazole-4-carboxamide], for which the IC50 at human Aurora A (read-out: Aurora A IC50) is < 100 µM.

On to `COc1ccc(-c2nc(-c3c(F)cccc3F)[nH]c2C(N)=O)cc1` [Example B-5, 2-(2,6-difluorophenyl)-4-(4-methoxyphenyl)-1H-imidazole-5-carboxamide], for which the half-inhibitory concentration (IC50) on human FLT4 (read-out: FLT4 IC50) and on human Aurora A (read-out: Aurora A IC50) was < 100 µM throughout.

With `NC(=O)c1nc(-c2c(F)cccc2F)oc1-c1ccncc1` [Example F-8, 2-(2,6-difluorophenyl)-5-(pyridin-4-yl)oxazole-4-carboxamide], the IC50 on human FLT4 (read-out: FLT4 IC50) and on human Aurora A (read-out: Aurora A IC50) was < 10 µM each time.

For the compound `COc1ccc(-c2oc(-c3ccc(C(F)(F)F)cc3)nc2C(N)=O)cc1` [Example N-4, 5-(4-methoxyphenyl)-2-(4-(trifluoromethyl)phenyl)oxazole-4-carboxamide], the concentration for half-maximal inhibition (IC50) at human Aurora A (read-out: Aurora A IC50) was < 100 µM.

Consider `NC(=O)c1nc(-c2c(F)cccc2F)oc1-c1cccc(C(=O)N2CCCCC2)c1` [Example F-31, 2-(2,6-Difluorophenyl)-5-(3-(piperidine-1-carbonyl)phenyl)oxazole-4-carboxamide], for which the half-inhibitory concentration (IC50) was < 10 µM at human FLT4 (read-out: FLT4 IC50) and < 100 µM at human Aurora A (read-out: Aurora A IC50).

With `NC(=O)c1[nH]c(-c2c(F)cccc2F)nc1-c1ccccn1` [Example C-1, 2-(2,6-difluorophenyl)-4-(pyridin-2-yl)-1H-imidazole-5-carboxamide], the IC50 at human FLT4 (read-out: FLT4 IC50) and on human Aurora A (read-out: Aurora A IC50) was < 100 µM throughout.

Turning to `NC(=O)c1nc(-c2ccnc3[nH]ccc23)oc1-c1ccc(N2CCNCC2)cc1` [Example M-18, 5-(4-(piperazin-1-yl)phenyl)-2-(1H-pyrrolo[2,3-b]pyridin-4-yl)oxazole-4-carboxamide], the IC50 on human FLT4 (read-out: FLT4 IC50) and at human Aurora A (read-out: Aurora A IC50) was < 10 µM throughout.

Take `NC(=O)c1nc(-c2c(F)cccc2F)oc1-c1cccc2cccnc12` [Example F-37, 2-(2,6-difluorophenyl)-5-(quinolin-8-yl)oxazole-4-carboxamide]: the 50% inhibitory concentration (IC50) on human Aurora A (read-out: Aurora A IC50) is < 100 µM.

Regarding `COc1ccc(-c2nc(-c3cccnc3)[nH]c2C(N)=O)cc1` [Example A-12, 4-(4-methoxyphenyl)-2-(pyridin-3-yl)-1H-imidazole-5-carboxamide], the IC50 on human FLT4 (read-out: FLT4 IC50) and on human Aurora A (read-out: Aurora A IC50) was < 100 µM each time.

On to `COc1ccc(-c2oc(-c3cc(C(F)(F)F)ccc3F)nc2C(N)=O)cc1` [Example N-6, 2-(2-fluoro-5-(trifluoromethyl)phenyl)-5-(4-methoxyphenyl)oxazole-4-carboxamide], for which the IC50 at human Aurora A (read-out: Aurora A IC50) is < 100 µM.

With `CS(=O)(=O)c1ccc(F)c(Nc2oc(-c3c(F)cccc3F)nc2C(N)=O)c1` [Example Q-44, 2-(2,6-difluorophenyl)-5-(2-fluoro-5-(methylsulfonyl)phenylamino)oxazole-4-carboxamide], the IC50 at human FLT4 (read-out: FLT4 IC50) was < 10 µM; on human Aurora A (read-out: Aurora A IC50), < 100 µM.

Regarding `NC(=O)c1nc(-c2c(F)cccc2F)oc1-c1ccc(OCCN2CCC(CO)CC2)cc1` [Example S-18, 2-(2,6-difluorophenyl)-5-(4-(2-(4-(hydroxymethyl)piperidin-1-yl)ethoxy)phenyl)oxazole-4-carboxamide], the concentration for half-maximal inhibition (IC50) on human FLT4 (read-out: FLT4 IC50) and at human Aurora A (read-out: Aurora A IC50) was < 10 µM in each case.

For `CN1C2CCC1CC(NC(=O)c1ccc(Nc3oc(-c4c(F)cccc4F)nc3C(N)=O)cc1)C2` (stereo not drawn) [Example U-11, 5-(4-((8-methyl-8-aza-bicyclo[3.2.1]octan-3-yl)carbamoyl)phenylamino)-2-(2,6-difluorophenyl)oxazole-4-carboxamide], the IC50 on human FLT4 and against human Aurora A was < 10 µM each time.

As to `COc1ccc(Nc2nc(C(N)=O)c(-c3ccc(OC)cc3)o2)cc1` [Example R-4, 5-(4-methoxyphenyl)-2-(4-methoxyphenylamino)oxazole-4-carboxamide], the results for the IC50 at human FLT4 (read-out: FLT4 IC50) and at human Aurora A (read-out: Aurora A IC50) were < 10 µM and < 100 µM, respectively.

Consider `COc1ccc(-c2oc(-c3ccc(C)cc3)nc2C(N)=O)cc1` [Example N-9, 5-(4-methoxyphenyl)-2-p-tolyloxazole-4-carboxamide], for which the IC50 at human Aurora A (read-out: Aurora A IC50) was < 100 µM.

Consider `COc1ccc(-c2nc(-c3ccccc3C)[nH]c2C(N)=O)cc1` [Example A-6, 4-(4-methoxyphenyl)-2-o-tolyl-1H-imidazole-5-carboxamideHH], for which the IC50 on human FLT4 (read-out: FLT4 IC50) and on human Aurora A (read-out: Aurora A IC50) was < 100 µM throughout.

On to `COc1ccc(-c2oc(Nc3c(F)cccc3F)nc2C(N)=O)cc1` [Example R-9, 2-(2,6-difluorophenylamino)-5-(4-methoxyphenyl)oxazole-4-carboxamide], for which the IC50 at human Aurora A (read-out: Aurora A IC50) was < 10 µM.

Regarding `COc1cccc(Nc2oc(-c3c(F)cccc3F)nc2C(N)=O)c1` [Example Q-6, 2-(2,6-difluorophenyl)-5-(3-methoxyphenylamino)oxazole-4-carboxamide], the IC50 at human FLT4 (read-out: FLT4 IC50) and on human Aurora A (read-out: Aurora A IC50) was < 100 µM throughout.

Consider `NC(=O)c1nc(-c2c(F)cccc2F)oc1Nc1ccc(C(=O)N[C@@H]2CCNC2)cc1` [Example U-6, (R)-2-(2,6-difluorophenyl)-5-(4-(pyrrolidin-3-ylcarbamoyl)phenylamino)oxazole-4-carboxamide], for which the IC50 on human FLT4 (read-out: FLT4 IC50) and at human Aurora A (read-out: Aurora A IC50) was < 10 µM throughout.

In the case of `COc1ccc(-c2nc(-c3ccccc3F)[nH]c2C(N)=O)cc1` [Example A-11, 2-(2-fluorophenyl)-4-(4-methoxyphenyl)-1H-imidazole-5-carboxamide], the IC50 at human FLT4 (read-out: FLT4 IC50) and on human Aurora A (read-out: Aurora A IC50) was < 100 µM in each case.

With `COc1ccc(-c2nc(-c3cccc(C)c3)[nH]c2C(N)=O)cc1` [Example A-7, 4-(4-methoxyphenyl)-2-m-tolyl-1H-imidazole-5-carboxamide], the concentration for half-maximal inhibition (IC50) on human FLT4 (read-out: FLT4 IC50) and at human Aurora A (read-out: Aurora A IC50) was < 100 µM each time.

Consider `NC(=O)c1nc(-c2c(F)cccc2F)oc1Nc1ccc(N2CCOCC2)nc1` [Example Q-48, 2-(2,6-difluorophenyl)-5-(6-morpholinopyridin-3-ylamino)oxazole-4-carboxamide], for which the IC50 on human FLT4 (read-out: FLT4 IC50) and on human Aurora A (read-out: Aurora A IC50) was < 10 µM in each case.

Regarding `CN(C)CCNc1ccc(-c2oc(-c3c(F)cccc3F)nc2C(N)=O)cc1` [Example F-33, 2-(2,6-difluorophenyl)-5-(4-(2-(dimethylamino)ethylamino)phenyl)oxazole-4-carboxamide], the IC50 on human FLT4 (read-out: FLT4 IC50) and at human Aurora A (read-out: Aurora A IC50) was < 10 µM each time.

For the compound `COc1ccc(-c2oc(-c3ccc(C(F)(F)F)cc3F)nc2C(N)=O)cc1` [Example N-5, 2-(2-fluoro-4-(trifluoromethyl)phenyl)-5-(4-methoxyphenyl)oxazole-4-carboxamide], the 50% inhibitory concentration (IC50) on human Aurora A (read-out: Aurora A IC50) was < 100 µM.

With `NC(=O)c1nc(-c2c(F)cccc2F)oc1-c1cccc2ccccc12` [Example F-35, 2-(2,6-difluorophenyl)-5-(naphthalen-1-yl)oxazole-4-carboxamide], on human Aurora A (read-out: Aurora A IC50), the IC50 was < 100 µM.

With `NC(=O)c1nc(-c2c(F)cccc2F)oc1-c1cccc2[nH]ccc12` [Example F-36, 2-(2,6-difluorophenyl)-5-(1H-indol-4-yl)oxazole-4-carboxamide], the 50% inhibitory concentration (IC50) at human Aurora A (read-out: Aurora A IC50) was < 100 µM.

Turning to `NC(=O)c1[nH]c(-c2c(F)cccc2F)nc1-c1ccccc1F` [Example A-18, 2-(2,6-difluorophenyl)-4-(2-fluorophenyl)-1H-imidazole-5-carboxamide], the IC50 on human Aurora A (read-out: Aurora A IC50) is < 10 µM.
